This test has as its target T1, Alpha-2C adrenergic receptor (Rattus norvegicus, UniProt P22086).
T1 sequence (P22086 whole entry): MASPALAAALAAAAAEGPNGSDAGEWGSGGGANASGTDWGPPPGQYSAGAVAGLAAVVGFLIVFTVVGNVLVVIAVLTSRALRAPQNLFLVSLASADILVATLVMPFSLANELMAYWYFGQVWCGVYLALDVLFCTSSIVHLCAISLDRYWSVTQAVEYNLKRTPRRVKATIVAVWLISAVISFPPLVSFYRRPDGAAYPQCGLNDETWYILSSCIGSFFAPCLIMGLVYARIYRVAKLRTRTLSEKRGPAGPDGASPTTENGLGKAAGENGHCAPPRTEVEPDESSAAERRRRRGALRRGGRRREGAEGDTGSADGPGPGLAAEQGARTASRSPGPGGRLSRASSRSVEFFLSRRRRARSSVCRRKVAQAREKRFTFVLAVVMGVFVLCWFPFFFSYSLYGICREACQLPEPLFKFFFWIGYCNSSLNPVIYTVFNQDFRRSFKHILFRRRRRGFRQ
By Ki is commonly meant the equilibrium dissociation constant of an inhibitor or competing ligand from its target. A lower Ki goes with tighter binding. On to `Nc1ncnc2c1ncn2[C@@H]1O[C@H](COP(=O)(O)OP(=O)(O)OP(=O)(O)O)[C@@H](O)[C@H]1O`, for which affinity was put at a Ki of 3.1 nM.

Turning to `Nc1nc2c(ncn2[C@@H]2O[C@H](COP(=O)(O)OP(=O)(O)NP(=O)(O)O)[C@@H](O)[C@H]2O)c(=O)[nH]1` [CAS_59803-98-4], the inhibitory constant (Ki) is 6.2 nM.

Compound `[N-]=[N+]=Nc1ccc(NP(=O)(O)OP(=O)(O)OP(=O)(O)OC[C@H]2O[C@@H](n3cnc4c(=O)[nH]c(N)nc43)[C@H](O)[C@@H]2O)cc1` [CAS_59803-98-4] yielded an inhibition constant (Ki) of 1.6 nM.

Source of the values: BindingDB's records for doi:10.1016/s0165-0270(00)00358-7 (University of Nebraska, 2001).
